The values below come from ChEMBL document CHEMBL1201862, “PubChem BioAssay data set” (2004).

The subject of one test is T47D. Kind of test: NCI-60 cell line screen, 48 h.
The next test concerns Hs-578T. Kind of test: NCI-60 cell line screen, 48 h.

Structures are written as SMILES.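 Step 1: Grow cells in 96-well plates. Step 2: Expose to compound for 48 hours at 5 concentrations. Step 3: Interpolate endpoints linearly; if unreached, use highest concentration. GI50 = concentration required for 50% inhibition of growth.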 Activity calls are given as the source filed them. Rule as the data show it: active = GI50 up to about 1.1 µM and inactive = higher.

Consider `CC(=O)OCCN1c2ccccc2Sc2cnccc21`, for which the GI50 with T47D was > 10 µM (inactive).
On to `C=CO/N=[N+](\[O-])N(CC)CC`, for which the GI50 with Hs-578T and in the test on T47D was > 100 µM (inactive) each time.
As to `Cc1nc(=O)[nH]c2s/c(=N/C3CCCCC3)n(C3CCCCC3)c(=O)c12`, the GI50 with T47D is > 100 µM (inactive).
In the case of `NCCCc1nonc1C(=O)O`, the GI50 in the test on Hs-578T and with T47D was > 100 µM (inactive) each time.
Take `N#CC(C#N)=Cc1ccc2c(c1)OC(Cl)O2` (configuration not stated): the GI50 in the test with T47D is 32.4 µM (inactive).
For `COC(=O)CCC1(O)C=CC(=O)C=C1`, in the test with Hs-578T, the GI50 is 29.4 µM (inactive).
Turning to `CCOC(=O)NC(C(F)(F)F)(C(F)(F)F)P(=O)(OCC)OCC`, the GI50 with Hs-578T was 16.9 µM (inactive); with T47D, 42.1 µM (inactive).
The corresponding values for `CC1=NN(c2nc(N)nc(CBr)n2)C(C)(C)C1` are 13.9 µM (inactive) and 5.97 µM (inactive).
The like results for `COc1ccc2c(c1)-c1nc(=S)n(CCCN(C)C)c3ccc([N+](=O)[O-])c(c13)N2` were, in that order, 1.72 µM (inactive) and 18.7 µM (inactive).
The corresponding values for `CC(C)(CN)SCc1ccccc1` are > 100 µM (inactive) and > 100 µM (inactive).
For `CCOC(=O)c1c(N2CCOCC2)ncn(-c2cccc(Cl)c2)c1=O`, the GI50 in the test with Hs-578T and in the test with T47D was > 100 µM (inactive) throughout.
As for `O=c1c2cc(S(=O)(=O)Nc3ccccc3Cl)ccc2ncn1NS(=O)(=O)c1ccc(Br)cc1`, the GI50 in the test on Hs-578T is > 37.5 µM (inactive).
As for `COc1cccc(C2CC(C)(N3CCCC3)Oc3cc4c(cc32)OCO4)c1O` (configuration not stated), the GI50 was 21.5 µM (inactive) in the test with Hs-578T and 30.8 µM (inactive) in the test on T47D.
As for `N=C(N)C1CN(CC=O)C(=O)NC1=O` (configuration not stated), the GI50 with T47D was > 100 µM (inactive).
`CN(C)c1ccc(C2CC(c3ccc4ccccc4c3O)=NN2c2ccc([N+](=O)[O-])cc2[N+](=O)[O-])cc1` (configuration not stated): the GI50 in the test with Hs-578T was 48.8 µM (inactive); in the test with T47D it was 68.1 µM (inactive).
For `S=C(Nc1ccc(/N=N/c2ccccc2)cc1)SCc1ccccc1`, the GI50 in the test with Hs-578T is 22.2 µM (inactive); in the test on T47D, 28.3 µM (inactive).
Turning to `Cc1cn(S(=O)(=O)c2ccccc2)c2c(OCc3ccccc3)cc(NS(C)(=O)=O)cc12`, the GI50 was 39.5 µM (inactive) in the test with Hs-578T and 4.72 µM (inactive) with T47D.
On to `CCN(CC)CCCNc1nncc2cc3c([nH]c4ccc(OC)cc43)c(C)c12`, for which the values for the GI50 in the test with Hs-578T and in the test on T47D were 10.4 µM (inactive) and 11.8 µM (inactive), respectively.
The like results for `CCOC(=O)C1Cc2ccc(C)cc2C1=O` (configuration not stated) were, in that order, > 100 µM (inactive) and > 100 µM (inactive).
For the compound `COc1ccc(NC(=O)Oc2cc(C)c3ccc(=O)cc-3o2)c(OC)c1.COc1ccc(NC(=O)Oc2ccc3c(C)cc(=O)oc3c2)c(OC)c1`, the GI50 with Hs-578T and with T47D was > 100 µM (inactive) throughout.
On to `C=CCc1ccccc1CC1(OCC)OC(=O)c2ccccc21` (configuration not stated), for which the GI50 with Hs-578T is > 100 µM (inactive); with T47D, 76.9 µM (inactive).
Turning to `NC(=S)NS(=O)(=O)c1ccc(F)cc1F`, the GI50 with Hs-578T and in the test with T47D was > 100 µM (inactive) throughout.
On to `CN1Cc2ccccc2/C=C\c2ccccc21`, for which the GI50 in the test with Hs-578T is 44.8 µM (inactive); in the test with T47D, 50.5 µM (inactive).
Consider `O=C1Nc2nnc(S)n2NC12c1ccccc1-c1ccccc12`, for which the GI50 in the test on Hs-578T is > 100 µM (inactive).
For `CN1C(=O)CC2CCC(=O)N2c2cccnc21` (configuration not stated), the GI50 with Hs-578T and in the test on T47D was > 100 µM (inactive) in each case.
In the case of `Cc1n[nH]c(=O)n1C1CCCC1`, the GI50 with Hs-578T and in the test on T47D was > 100 µM (inactive) in each case.
Regarding `CC(=O)C1C(=O)C(=O)N(c2cccc([N+](=O)[O-])c2)C1=O` (configuration not stated), in the test on Hs-578T, the GI50 is > 100 µM (inactive).
As to `O=c1cc(C(F)(F)F)c2cc3c(cc2o1)NCCC3`, the figures for the GI50 in the test on Hs-578T and in the test with T47D were 18.5 µM (inactive) and 9.46 µM (inactive), respectively.
Take `CC(C)(C)OC(=O)Nc1nnc(S(N)(=O)=O)s1`: the GI50 with Hs-578T and in the test with T47D was > 100 µM (inactive) each time.
Take `O=C1c2ccccc2-c2oc(=O)c3ccccc3c21`: the GI50 in the test on Hs-578T and with T47D was > 100 µM (inactive) throughout.
